Bounds are passed on as bounds.

The target of one test is T1, PDE4Bcat (Homo sapiens, UniProt Q07343).
T1 construct: made in house; host or cells: Sf9 insect cells (baculovirus, Bac-to-Bac / Gateway)
The test can be described thus: Phosphodiesterase-inhibitory activity, PDE4. It counts as biochemical. The conditions noted are these: human-derived recombinant PDE protein, [3H]-cAMP, 30° C. for 20 minutes; read-out: IC50 (μmol/L) PDE4.

The next test concerns the target T2, PDE3A catalytic zone (Homo sapiens, UniProt Q14432).
T2 construct: Regarding the cDNAs of the PDE3A catalytic zone; made in house; host or cells: Sf9 insect cells (baculovirus, Bac-to-Bac / Gateway)
Kind of test: Phosphodiesterase-inhibitory activity, PDE3. It counts as biochemical. The conditions noted are these: human-derived recombinant PDE protein, [3H]-cAMP, 30° C. for 20 minutes; read-out: IC50 (μmol/L) PDE3.

T2 sequence (Q14432 674-1093 limits assumed): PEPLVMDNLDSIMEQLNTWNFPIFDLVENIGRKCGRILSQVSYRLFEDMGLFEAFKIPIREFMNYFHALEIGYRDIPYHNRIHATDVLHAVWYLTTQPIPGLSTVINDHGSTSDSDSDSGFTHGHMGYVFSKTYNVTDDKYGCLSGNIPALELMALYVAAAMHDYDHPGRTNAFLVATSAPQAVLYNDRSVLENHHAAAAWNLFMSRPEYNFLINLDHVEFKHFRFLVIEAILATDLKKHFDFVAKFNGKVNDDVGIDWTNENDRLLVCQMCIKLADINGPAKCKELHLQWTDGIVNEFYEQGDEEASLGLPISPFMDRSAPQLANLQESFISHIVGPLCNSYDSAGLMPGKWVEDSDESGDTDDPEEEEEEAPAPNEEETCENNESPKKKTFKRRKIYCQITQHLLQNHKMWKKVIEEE
T1 sequence (Q07343 330-659 limits assumed): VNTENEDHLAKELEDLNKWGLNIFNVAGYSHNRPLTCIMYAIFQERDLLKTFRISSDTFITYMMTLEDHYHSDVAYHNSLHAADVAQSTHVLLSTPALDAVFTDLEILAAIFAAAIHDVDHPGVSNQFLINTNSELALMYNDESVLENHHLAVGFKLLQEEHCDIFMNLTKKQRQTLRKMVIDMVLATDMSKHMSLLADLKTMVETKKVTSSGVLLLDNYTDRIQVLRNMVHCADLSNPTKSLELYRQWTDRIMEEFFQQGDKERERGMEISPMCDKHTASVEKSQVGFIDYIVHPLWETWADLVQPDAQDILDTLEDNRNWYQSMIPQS

`CCc1cc2c(-c3ccc4cnccc4c3)ccc(OC)n2n1` [Example 54, 6-(2-Ethyl-7-methoxypyrazolo[1,5-a]pyridin-4-yl)isoquinoline]: the IC50 on PDE4Bcat was less than 0.01 µmol/L; on PDE3A catalytic zone it was 1 to 100 µmol/L.
Taken in the same sequence, the figures for `CNc1ccc(-c2ccc3cnccc3c2)n2c(Cl)c(C(F)(F)F)nc12` [Example 58, 3-Chloro-5-(isoquinolin-6-yl)-N-methyl-2-trifluoromethylimidazo[1,2a]pyridine-8-amine] were less than 0.01 µmol/L and not below 100 µmol/L.
For `COc1ccc(-c2ccc3c[n+]([O-])ccc3c2)c2cc(C(F)(F)F)nn12` [Example 48, 6-(7-Methoxy-2-trifluoromethylpyrazolo[1,5-a]pyridin-4-yl)isoquinoline 2-oxide] the same measures were less than 0.01 µmol/L and 1 to 100 µmol/L.
Taken in the same sequence, the figures for `COc1ccc(-c2ccc3cnccc3c2)n2c(Cl)c(C(F)(F)F)nc12` [Example 57, 6-(3-Chloro-8-methoxy-2-trifluoromethylimidazo[1,2-a]pyridin-5-yl)isoquinoline] were less than 0.01 µmol/L and not below 100 µmol/L.
For `COc1ccc(-c2ccc3cnccc3c2)c2cc(C(F)(F)F)nn12` [Example 47, 6-(7-Methoxy-2-trifluoromethylpyrazolo[1,5-a]pyridin-4-yl)isoquinoline], the values for the IC50 on PDE4Bcat and at PDE3A catalytic zone were less than 0.01 µmol/L and not below 100 µmol/L, respectively.
In the case of `CNc1ccc(-c2ccc3cnccc3c2)c2cc(C(F)(F)F)nn12` [Example 55, 4-(Isoquinolin-6-yl)-N-methyl-2-trifluoromethylpyrazolo[1,5-a]pyridine-7-amine], the IC50 was less than 0.01 µmol/L at PDE4Bcat and not below 100 µmol/L at PDE3A catalytic zone.
For `COc1ccc(-c2ccc3cnccc3c2)c2cc(C3CC3)nn12` [Example 53, 6-(2-Cyclopropyl-7-methoxypyrazolo[1,5-a]pyridin-4-yl)isoquinoline] the same measures were less than 0.01 µmol/L and 1 to 100 µmol/L.
With `CNc1ccc(-c2ccc3cnccc3c2)c2c(Cl)c(C(F)(F)F)nn12` [Example 56, 3-Chloro-4-(isoquinolin-6-yl)-N-methyl-2-trifluoromethylpyrazolo[1,5-a]pyridine-7-amine], the IC50 on PDE4Bcat is less than 0.01 µmol/L; on PDE3A catalytic zone it was not below 100 µmol/L.
For `COc1ccc(-c2ccc3cnccc3c2)c2c(Cl)c(C(F)(F)F)nn12` [Example 51, 6-(3-Chloro-7-methoxy-2-trifluoromethylpyrazolo[1,5-a]pyridin-4-yl)isoquinoline] the same measures were less than 0.01 µmol/L and not below 100 µmol/L.
For the compound `COc1ccc(-c2ccc3cncc(Cl)c3c2)c2cc(C(F)(F)F)nn12` [Example 49, 4-Chloro-6-(7-methoxy-2-trifluoromethylpyrazolo[1,5-a]pyridin-4-yl)isoquinoline], the values for the IC50 at PDE4Bcat and on PDE3A catalytic zone were less than 0.01 µmol/L and 1 to 100 µmol/L, respectively.
In the case of `COc1ccc(-c2ccc3cncc(Cl)c3c2)c2c(Cl)c(C(F)(F)F)nn12` [Example 52, 4-Chloro-6-(3-chloro-7-methoxy-2-trifluoromethylpyrazolo[1,5-a]pyridin-4-yl)isoquinoline], the IC50 at PDE4Bcat was less than 0.01 µmol/L; at PDE3A catalytic zone, not below 100 µmol/L.
On to `COc1ccc(-c2ccc3cnccc3c2)c2cccnc12` [Example 59, 5-(Isoquinolin-6-yl)-8-methoxyquinoline], for which the IC50 at PDE4Bcat was less than 0.01 µmol/L; at PDE3A catalytic zone it was 1 to 100 µmol/L.
In the case of `COc1ccc(-c2ccc3cnccc3c2Cl)c2cc(C(F)(F)F)nn12` [Example 50, 5-Chloro-6-(7-methoxy-2-trifluoromethylpyrazolo[1,5-a]pyridin-4-yl)isoquinoline], the IC50 is less than 0.01 µmol/L at PDE4Bcat and 1 to 100 µmol/L at PDE3A catalytic zone.
